Source: patent publication US20180280364A1, “PHARMACEUTICAL COMPOSITIONS OF SODIUM PICOSULFATE, MAGNESIUM OXIDE AND CITRIC ACID” (Hetero Labs Limited, priority 2017, published 2018)

Assay: Compatibility study of sodium picosulfate with citric acid
Format: physicochemical
Conditions: produced a wet mass with high known impurities
From the text: As sodium picosulfate is having sensitivity towards an acidic nature ingredient, there is a need to formulate the composition of sodium picosulfate not in direct contact with the citric acid.

**Q.** For `O=S(=O)(O)Oc1ccc(C(c2ccc(OS(=O)(=O)O)cc2)c2ccccn2)cc1` [sodium picosulfate], which “Compatibility / stability with citric acid” value is on record?
**A.** The value was “not compatible or stable with citric acid physically and chemically”.
